Data from patent publication US12692221B2 (priority 2024, dated 2026).

What was measured:
alpha1A (h) = biological target: T1, alpha1A (h) (Homo sapiens, UniProt P35348); assay: Radioligand binding alpha1A (h) (antagonist radioligand), [^3H]prazosin, CHO cells
T1 construct: expressed in transfected cells; host or cells: CHO cells
T1 sequence (P35348 1-466): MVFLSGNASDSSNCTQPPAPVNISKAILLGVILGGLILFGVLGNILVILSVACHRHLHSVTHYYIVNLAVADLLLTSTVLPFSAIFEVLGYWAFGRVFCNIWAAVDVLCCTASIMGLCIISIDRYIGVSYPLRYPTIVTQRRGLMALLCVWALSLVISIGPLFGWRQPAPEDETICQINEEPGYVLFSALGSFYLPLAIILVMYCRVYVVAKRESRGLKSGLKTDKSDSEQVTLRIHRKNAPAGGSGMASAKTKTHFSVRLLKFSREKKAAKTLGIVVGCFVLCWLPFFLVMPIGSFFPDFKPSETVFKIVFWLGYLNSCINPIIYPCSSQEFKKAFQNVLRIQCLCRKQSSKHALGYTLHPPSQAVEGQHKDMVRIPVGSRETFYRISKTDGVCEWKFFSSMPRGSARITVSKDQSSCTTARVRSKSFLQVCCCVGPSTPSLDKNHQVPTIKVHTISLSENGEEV
Experimental: (§1) Methods—Binding Assays: In vitro binding assays were performed using human recombinant receptors expressed in mammalian cell lines. Receptors were expressed in either HEK-293 or CHO cells depending on the target, and assay conditions (radioligand, concentration, nonspecific competitor, temperature, and incubation time) were optimized for each receptor. All assays were conducted in triplicate, and specific binding was quantified by scintillation counting as the detection method for each listed assay.
(§2) Specific binding was expressed as a percentage of control-specific binding, and percent inhibition was calculated using the formula in Ex. 8 above. Half-maximal inhibitory concentrations (IC50) were determined by non-linear regression analysis of the inhibition curves using the Hill equation (see Ex. 8). Inhibition constants (Ki) were calculated using the Cheng-Prusoff equation (see Ex. 8). KD values used in these calculations had been previously established for each receptor under the assay conditions (see Table 6). Data analysis was performed using software developed at Cerep and validated against SigmaPlot 4.0 for Windows.

H2 (h) = biological target: T2, H2 (h) (Homo sapiens, UniProt P25021); assay: Radioligand binding H2 (h) (antagonist radioligand), [^125I]APT, CHO cells
T2 construct: expressed in transfected cells; host or cells: CHO cells
Experimental: as §1, §2

MDR1 = assay: MDR1-MDCKII bidirectional permeability assay; assay type: in vitro ADME, Canine; conditions: dog; for recovery at 60 min / recovery at 40 min: MDCK-MDR1, pH 7.4; for recovery at 60 min / Papp A→B at 60 min: apical-to-basolateral; for recovery at 60 min: read-out: A-B Percent Recovery; for recovery at 40 min / Papp B→A at 40 min: basolateral-to-apical; for recovery at 40 min: read-out: B-A Percent Recovery; for Papp A→B at 60 min / Papp B→A at 40 min: MDCK-MDR1, HBSS pH 7.4, 37° C.
Experimental: Methods: In vitro permeability studies were performed using confluent monolayers of MDR1-transfected Madin-Darby Canine Kidney (MDR1-MDCKII) cells cultured under standard conditions. Cells were seeded onto permeable supports and maintained until they formed tight monolayers suitable for bidirectional transport studies. The assay was conducted at 37° C. using Hanks' balanced salt solution (HBSS) adjusted to pH 7.4 on both the apical and basolateral sides. For apical-to-basolateral (A-B) permeability, samples were collected at 0 and 60 minutes, whereas for basolateral-to-apical (B-A) permeability, samples were collected at 0 and 40 minutes. The concentration of each compound in the donor and receiver chambers was determined by HPLC-MS/MS, and all results were expressed in terms of peak area.
The apparent permeability coefficient (Papp) for each compound was calculated using the formula:
[formula] where VR was the volume of the receiver chamber, CR,end was the concentration of the compound in the receiver chamber at the final time point, At was the incubation time, and A was the surface area of the cell monolayer. The midpoint donor concentration (CD,mid) was calculated as the average of the donor concentrations at time 0 and the end time point, while CR,mid was calculated as one-half of CaR,end.
Compound recovery was also evaluated using the following formula:
[formula] where VD and VR were the volumes of the donor and receiver chambers, respectively, CD,end and CR,end were the compound concentrations at the final time point in their respective compartments, and CD0 was the initial concentration in the donor chamber. Monolayer integrity was assessed following the permeability assay using fluorescein as a paracellular marker compound. Fluorescein was added to the apical chamber and sampled in the basolateral chamber after incubation. […] Only data from wells that met this integrity threshold were included in the final analysis.

5-HT2B = 5-HT2B (Homo sapiens, UniProt P41595); assay: IP-One HTRF IP-1 accumulation functional assay, 5-HT2B/HEK293; assay type: cell-based; set-up: host or cells: HEK293
Experimental: Methods (5-HT2B IP-One Functional Activity Assays): Intracellular accumulation of IP-1 was measured using an IP-One HTRF) assay kit (Cat. #62IPAPEJ, Cisbio) at WuXi AppTec Co. Ltd. (Hong Kong) Discovery Biology Unit according to their standard protocols. Briefly, 5-HT2B/HEK293 were plated in a 384-well plate and incubated at 37° C. and 5% CO2 overnight. The reference compounds and screening compounds were 3.16-fold serially diluted in 100% DMSO for 10 points using Bravo. 70 nL of compounds were added to the cell plate using Echo555. Incubated for 60 minutes at 37° C. Added 3 μL of IP-1 d2 Reagent working solution and 3 μL of IP-1 Tb Cryptate Antibody working solution to all wells. The plates were incubated for 1 hour at room temperature and read on for fluorescence at 620 nm and 665 nm on an EnVision Multimode Plate Reader (PerkinElmer). The ratio of the acceptor and donor emission signals (665/620) were calculated for each individual well and substituted into the standard curve to obtain the log concentration of IP level. After converting to the antilog base IP-1, the average background control signal was subtracted from each well and values were normalized to the maximal response of 5-HT at 3 μM (100%). % MAX was calculated by taking the average normalized maximal response at the highest concentration tested. Data were analyzed using the four-parameter nonlinear regression curve-fitting function in GraphPad Prism 5 (GraphPad Software, San Diego, CA) to generate potency (EC50) values. Parameter constraint “Top=100” was used in the analysis of 5-HT2B IP-1. Represented plots show normalized IP-1 values versus compound concentrations; the corresponding numerical data are parameter estimates for the concentration-response curve using the 4-parameter nonlinear regression curve-fitting function in GraphPad Prism 10. “Top=100” parameter constraint was not enabled for the represented plot analysis.

T2 sequence (P25021 whole entry): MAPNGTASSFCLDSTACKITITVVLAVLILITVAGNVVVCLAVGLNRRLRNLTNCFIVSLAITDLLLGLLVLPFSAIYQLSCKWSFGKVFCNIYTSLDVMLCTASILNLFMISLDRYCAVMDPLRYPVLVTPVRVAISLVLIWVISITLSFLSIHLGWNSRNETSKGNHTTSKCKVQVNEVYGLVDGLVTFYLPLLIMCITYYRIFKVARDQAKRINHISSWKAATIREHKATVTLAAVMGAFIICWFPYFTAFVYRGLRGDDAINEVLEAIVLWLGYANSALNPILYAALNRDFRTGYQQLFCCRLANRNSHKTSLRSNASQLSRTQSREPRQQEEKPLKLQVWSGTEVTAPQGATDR
5-HT2B, sequence (P41595 whole entry): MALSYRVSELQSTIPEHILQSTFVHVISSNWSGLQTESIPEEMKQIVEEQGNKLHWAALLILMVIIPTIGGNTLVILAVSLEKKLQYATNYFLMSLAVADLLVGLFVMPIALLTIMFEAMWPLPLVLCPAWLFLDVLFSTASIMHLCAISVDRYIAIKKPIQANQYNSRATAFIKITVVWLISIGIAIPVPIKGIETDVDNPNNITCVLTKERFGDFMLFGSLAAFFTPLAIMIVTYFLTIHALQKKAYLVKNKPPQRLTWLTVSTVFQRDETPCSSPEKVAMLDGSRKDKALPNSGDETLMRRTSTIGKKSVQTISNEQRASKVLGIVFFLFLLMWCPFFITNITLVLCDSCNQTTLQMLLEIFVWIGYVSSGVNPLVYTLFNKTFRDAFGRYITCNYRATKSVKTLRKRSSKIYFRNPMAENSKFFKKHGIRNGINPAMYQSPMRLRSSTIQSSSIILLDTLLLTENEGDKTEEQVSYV

Compound: COCc1cc(CCN)c(O)cc1CC(C)C [2CiBu-2OH-5MM, 2-(2-aminoethyl)-5-isobutyl-4-(methoxymethyl)phenol]
- Mean Percent Inhibition of Control Specific Binding (alpha1A (h)): 51.6%
- Mean Percent Inhibition of Control Specific Binding (H2 (h)): 12.5%

Compound: COCCc1cc(CCN)c(OC)cc1Br [Compound 2CB-5ME, reference compound]
- Mean Percent Inhibition of Control Specific Binding (alpha1A (h)): 33.6%
- Mean Percent Inhibition of Control Specific Binding (H2 (h)): −0.6%
- recovery at 60 min (MDR1): 75%
- recovery at 40 min (MDR1): 79%
- Papp A→B at 60 min (MDR1): 32.9 ×10⁻⁶ cm/s
- Papp B→A at 40 min (MDR1): 13.8 ×10⁻⁶ cm/s
- EC50 (5-HT2B): 131 nM

Compound: COCc1cc(CCN)c(OC)cc1Br [Compound 2CB-5MM, 2-(4-bromo-2-methoxy-5-(methoxymethyl)phenyl)ethan-1-amine]
- Mean Percent Inhibition of Control Specific Binding (alpha1A (h)): 29.4%
- Mean Percent Inhibition of Control Specific Binding (H2 (h)): −14.7%
- recovery at 60 min (MDR1): 78%
- recovery at 40 min (MDR1): 83%
- Papp A→B at 60 min (MDR1): 29.9 ×10⁻⁶ cm/s
- Papp B→A at 40 min (MDR1): 14.5 ×10⁻⁶ cm/s
- EC50 (5-HT2B): 78.6 nM

Compound: COCc1cc(CCN)c(OC)cc1CC(C)C [Compound 2CiBu-5MM, 2-[4-isobutyl-2-methoxy-5-(methoxymethyl)phenyl]ethanamine]
- Mean Percent Inhibition of Control Specific Binding (alpha1A (h)): 7.6%
- Mean Percent Inhibition of Control Specific Binding (H2 (h)): −16.5%
- recovery at 60 min (MDR1): 76%
- recovery at 40 min (MDR1): 79%
- Papp A→B at 60 min (MDR1): 24.8 ×10⁻⁶ cm/s
- Papp B→A at 40 min (MDR1): 13.3 ×10⁻⁶ cm/s
- EC50 (5-HT2B): 825 nM
